# Measurements published in US20060160070A1, “Association-based epitome design” (Microsoft Corporation, priority 2004, published 2006).
# Molecular target: T1, HLA A*0101 (Homo sapiens, UniProt P04439, A114D/A174V/A182V/D101N/D185E/E176A/E190D/L180R/Q94H/R68K/S129P/T187R/V100A/V91M/W191G)
# T1 construct: purchased
# Assay: ITOPIA peptide binding assay
# Details: 1.11×10^−4M of peptide
# Experimental: (§1) Peptide binding, off-rate and affinity were measured according to the protocols described in the ITOPIA Epitope Discovery System Customer Guide. To conduct the experiments, ninety-six (96) micro-titer plates coated with MHC molecules representing the HLA alleles listed in Table 9 were used to identify candidate peptides. Determinations were performed in duplicate using an ELISA plate reader. The peptide binding assay used measures the ability of individual peptides to bind to the HLA molecules under standardized optimal binding conditions. The assay was performed for all the test peptides across the selected HLA alleles. The test peptides identified as “binders” were characterized further in terms of affinity and dissociation experiments. The off-rate assay used evaluates the dissociation of previously bound peptide at defined time points (expressed as the t1/2 value). The affinity assay used measures the relative binding affinities for the MHC molecules determined by incubating candidate peptides identified in the initial peptide binding assay at increasing concentrations (expressed as quantity of peptide needed to achieve 50% binding or ED50 value).
# (§2) The binding of the test peptides (Table 8) to the HLA molecules (Table 9) was performed at a concentration of 1.11×10^−4M of peptide under optimal, standardized test conditions. A control peptide was run in parallel on the same plate and at the same concentration as the test peptides. […] The level of binding is expressed as a percent of positive control peptide binding for each allele.
row,Substance,"level of binding, percent of positive control peptide binding"
1,VTLTEEAEL [compound 156],1% of positive control
2,155 (HNEWTLELL; HIV) [compound 155],0% of positive control
3,70 (VPLTEEAEL; HIV) [compound 70],1% of positive control
4,ALFYKLDVV [compound 72],4% of positive control

# Molecular target: T2, HLA A*0201 (Homo sapiens, UniProt P04439, D140Y/D185E/D98H/E176V/E277Q/G131W/G231S/I119V/I121R/I166T/I218V/L300P/L318F/N151K/N90K/P208A/P217A/Q86G/Q94H/R138H/R169H/T345S)
# Assay: ITOPIA peptide binding assay
# Details: 1.11×10^−4M of peptide
# Experimental: as §1, §2
row,Substance,"level of binding, percent of positive control peptide binding"
1,VTLTEEAEL [compound 156],26% of positive control
2,155 (HNEWTLELL; HIV) [compound 155],5% of positive control
3,70 (VPLTEEAEL; HIV) [compound 70],5% of positive control
4,ALFYKLDVV [compound 72],80% of positive control

# Molecular target: T3, HLA A*0301 (Homo sapiens, UniProt P04439)
# T3 construct: purchased
# Assay: ITOPIA peptide binding assay
# Details: 1.11×10^−4M of peptide
# Experimental: as §1, §2
row,Substance,"level of binding, percent of positive control peptide binding"
1,VTLTEEAEL [compound 156],0% of positive control
2,155 (HNEWTLELL; HIV) [compound 155],0% of positive control
3,70 (VPLTEEAEL; HIV) [compound 70],0% of positive control
4,ALFYKLDVV [compound 72],5% of positive control

# Molecular target: T4, HLA A*1101 (Homo sapiens, UniProt P04439, A114D/D185E/E176A/F33Y/L180Q/S129P/T187R)
# T4 construct: purchased
# Assay: ITOPIA peptide binding assay
# Details: 1.11×10^−4M of peptide
# Experimental: as §1, §2
row,Substance,"level of binding, percent of positive control peptide binding"
1,VTLTEEAEL [compound 156],1% of positive control
2,155 (HNEWTLELL; HIV) [compound 155],1% of positive control
3,70 (VPLTEEAEL; HIV) [compound 70],1% of positive control
4,ALFYKLDVV [compound 72],1% of positive control

# Molecular target: T5, HLA A*2402 (Homo sapiens, UniProt P04439, D101N/D140Y/D185E/E176V/E190D/F33S/G103R/G107R/I119L/I121M/I306V/K335N/L105A/L180Q/L300P/N151K/N90K/Q86E/Q94H/R106L/R138H/R89G/T104I/T345S/V100E/W191G/Y123F)
# Assay: ITOPIA peptide binding assay
# Details: 1.11×10^−4M of peptide
# Experimental: as §1, §2
row,Substance,"level of binding, percent of positive control peptide binding"
1,VTLTEEAEL [compound 156],11% of positive control
2,155 (HNEWTLELL; HIV) [compound 155],13% of positive control
3,70 (VPLTEEAEL; HIV) [compound 70],6% of positive control
4,ALFYKLDVV [compound 72],14% of positive control

# Molecular target: T6, HLA B*0702 (Homo sapiens, UniProt P01889)
# T6 construct: purchased
# Assay: ITOPIA peptide binding assay
# Details: 1.11×10^−4M of peptide
# Experimental: as §1, §2
row,Substance,"level of binding, percent of positive control peptide binding"
1,VTLTEEAEL [compound 156],0% of positive control
2,155 (HNEWTLELL; HIV) [compound 155],1% of positive control
3,70 (VPLTEEAEL; HIV) [compound 70],4% of positive control
4,ALFYKLDVV [compound 72],3% of positive control

# Molecular target: T7, HLA B*0801 (Homo sapiens, UniProt P01889, A93T/A95T/D138N/E176V/E187T/K202T/Q94N/R180D/S35A/V36M/Y33D/Y91F)
# T7 construct: purchased
# Assay: ITOPIA peptide binding assay
# Details: 1.11×10^−4M of peptide
# Experimental: as §1, §2
row,Substance,"level of binding, percent of positive control peptide binding"
1,VTLTEEAEL [compound 156],4% of positive control
2,155 (HNEWTLELL; HIV) [compound 155],3% of positive control
3,70 (VPLTEEAEL; HIV) [compound 70],4% of positive control
4,ALFYKLDVV [compound 72],3% of positive control

# Molecular target: T8, HLA B*1501 (Homo sapiens, UniProt P01889, A329T/A93T/A95T/C349S/D201E/D98Y/E187L/E204Q/E69M/E70A/K202T/N87E/Q94N/R155S/R180W/S121R/S35A/S48A/V306I/V36M/Y140S/Y91S)
# T8 construct: purchased
# Assay: ITOPIA peptide binding assay
# Details: 1.11×10^−4M of peptide
# Experimental: as §1, §2
row,Substance,"level of binding, percent of positive control peptide binding"
1,VTLTEEAEL [compound 156],7% of positive control
2,155 (HNEWTLELL; HIV) [compound 155],0% of positive control
3,70 (VPLTEEAEL; HIV) [compound 70],4% of positive control
4,ALFYKLDVV [compound 72],4% of positive control

# Molecular target: T2, HLA A*0201
# Assay: ITOPIA off-rate assay
# Format: binding
# Details: 37° C., one-phase exponential decay
# Experimental: as §1
# The peptides initially identified as binders were evaluated for stability based on their ability to remain bound to MHC molecules at 37° C. at time points 0, 0.5, 1, 1.5, 2, 4, 6 and 8 hours. […] The values obtained for each time point (in duplicate) are expressed (Table 11) as a percentage of the positive control. To calculate the t1/2 and goodness-of-fit, as measured by r^2, for each peptide, a one-phase exponential decay curve, with a plateau given equal to 0, was generated using […] PRISM software.
row,Substance,A*0201 t1/2
1,VTLTEEAEL [compound 156],1.2 h
2,ALFYKLDVV [compound 72],4.0 h

# Molecular target: T1, HLA A*0101
# Assay: Multi-parametric analysis iScore
# Format: binding
# Set-up: scale not given here
# Details: index integrating t1/2 and ED50
# Experimental: (§3) Multi-parametric analysis was performed to integrate the half-life (t½) and ED50 parameters in an index (iScore). The iScore (Table 13) reflects the capability of a peptide to reconstitute with MHC molecules in a stable complex, defining its overall level of binding.
row,Substance,iScore
1,VTLTEEAEL [compound 156],0
2,155 (HNEWTLELL; HIV) [compound 155],0
3,70 (VPLTEEAEL; HIV) [compound 70],0
4,ALFYKLDVV [compound 72],0

# Molecular target: T2, HLA A*0201
# Assay: Multi-parametric analysis iScore
# Format: binding
# Set-up: scale not given here
# Details: index integrating t1/2 and ED50
# Experimental: as §3
row,Substance,iScore
1,VTLTEEAEL [compound 156],0.110
2,155 (HNEWTLELL; HIV) [compound 155],0
3,70 (VPLTEEAEL; HIV) [compound 70],0
4,ALFYKLDVV [compound 72],0.484

# Molecular target: T3, HLA A*0301
# Assay: Multi-parametric analysis iScore
# Format: binding
# Set-up: scale not given here
# Details: index integrating t1/2 and ED50
# Experimental: as §3
row,Substance,iScore
1,VTLTEEAEL [compound 156],0
2,155 (HNEWTLELL; HIV) [compound 155],0
3,70 (VPLTEEAEL; HIV) [compound 70],0
4,ALFYKLDVV [compound 72],0

# Molecular target: T4, HLA A*1101
# Assay: Multi-parametric analysis iScore
# Format: binding
# Set-up: scale not given here
# Details: index integrating t1/2 and ED50
# Experimental: as §3
row,Substance,iScore
1,VTLTEEAEL [compound 156],0
2,155 (HNEWTLELL; HIV) [compound 155],0
3,70 (VPLTEEAEL; HIV) [compound 70],0
4,ALFYKLDVV [compound 72],0

# Molecular target: T5, HLA A*2402
# Assay: Multi-parametric analysis iScore
# Format: binding
# Set-up: scale not given here
# Details: index integrating t1/2 and ED50
# Experimental: as §3
row,Substance,iScore
1,VTLTEEAEL [compound 156],0
2,155 (HNEWTLELL; HIV) [compound 155],0
3,70 (VPLTEEAEL; HIV) [compound 70],0
4,ALFYKLDVV [compound 72],0

# Molecular target: T6, HLA B*0702
# Assay: Multi-parametric analysis iScore
# Format: binding
# Set-up: scale not given here
# Details: index integrating t1/2 and ED50
# Experimental: as §3
row,Substance,iScore
1,VTLTEEAEL [compound 156],0
2,155 (HNEWTLELL; HIV) [compound 155],0
3,70 (VPLTEEAEL; HIV) [compound 70],0
4,ALFYKLDVV [compound 72],0

# Molecular target: T7, HLA B*0801
# Assay: Multi-parametric analysis iScore
# Format: binding
# Set-up: scale not given here
# Details: index integrating t1/2 and ED50
# Experimental: as §3
row,Substance,iScore
1,VTLTEEAEL [compound 156],0
2,155 (HNEWTLELL; HIV) [compound 155],0
3,70 (VPLTEEAEL; HIV) [compound 70],0
4,ALFYKLDVV [compound 72],0

# Molecular target: T8, HLA B*1501
# Assay: Multi-parametric analysis iScore
# Format: binding
# Set-up: scale not given here
# Details: index integrating t1/2 and ED50
# Experimental: as §3
row,Substance,iScore
1,VTLTEEAEL [compound 156],0
2,155 (HNEWTLELL; HIV) [compound 155],0
3,70 (VPLTEEAEL; HIV) [compound 70],0
4,ALFYKLDVV [compound 72],0
